Target: T1, recombinant human 15-PGDH (Homo sapiens, UniProt P15428)
T1 construct: purchased R&D Systems
T1 sequence (P15428 1-266): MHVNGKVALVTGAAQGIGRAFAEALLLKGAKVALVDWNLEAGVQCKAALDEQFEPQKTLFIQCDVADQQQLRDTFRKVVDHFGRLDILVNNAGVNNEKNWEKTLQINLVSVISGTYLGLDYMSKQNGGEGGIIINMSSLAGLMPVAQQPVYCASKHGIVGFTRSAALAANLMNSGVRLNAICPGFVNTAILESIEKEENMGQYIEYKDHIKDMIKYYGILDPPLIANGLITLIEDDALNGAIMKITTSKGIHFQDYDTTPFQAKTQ
Assay: 15-PGDH enzyme inhibition test
Assay type: biochemical
Details: 4 nM recombinant human 15-PGDH, 30 μM PGE2, 1 mM NAD+, 60 minutes after starting the reaction; read-out: IC50 Value
Method in brief: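 Fluorescence (excitation 340 nm, emission 440 nm) measured 60 min after adding 1 mM NAD+ and 30 μM PGE2 to 4 nM recombinant human 15-PGDH, which had stood 12 min at room temperature with compound in pH 8.0 Tris-HCl buffer. Concentration-response curves yield IC50, binned into potency categories.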

SMILES: O=C(c1cnc2c(c1)OCCN2c1ccn2c(=O)n(Cc3ccccc3)nc2c1)N1CCCCC1 [Example 1-31]
- IC50: < 10 nM

SMILES: CCOCCN1Cc2cc(N3CCCc4cc(C(=O)N5CCC(F)(F)CC5)cnc43)ccc2C1=O [Example 1-83]
- IC50: < 10 nM

SMILES: O=C(O)c1ccc(N2CCOc3cc(C(=O)N4CCCCC4)ccc32)cn1 [Example 2-22]
- IC50: < 10 nM

SMILES: C[C@@H]1CCCN(C(=O)c2cnc3c(c2)OCCCN3c2ccn3c(=O)n(C)nc3c2)C1 [Example 8-60]
- IC50: < 10 nM

SMILES: CN1Cc2cc(N3CCCc4cc(C(=O)N5CCC(F)(F)CC5)cnc43)cnc2C1=O [Example 1-84]
- IC50: < 10 nM

SMILES: CCn1nc2cc(N3CCCc4cc(C(=O)N5CCC[C@H](C(F)(F)F)C5)cnc43)ccn2c1=O [Example 8-171]
- IC50: < 10 nM

SMILES: O=C(O)c1ccc(N2CCOc3cc(C(=O)N4CCCCC4)cnc32)cc1 [Example 4-2]
- IC50: < 10 nM

SMILES: CCOCn1nc2cc(N3CCOc4cc(C(=O)N5CCC(F)(F)CC5)cnc43)ccn2c1=O [Example 1-44]
- IC50: < 10 nM

SMILES: O=C(O)c1ccc(N2CCCc3cc(C(=O)N4CCCCC4)cnc32)cc1 [Example 2-34]
- IC50: < 10 nM

SMILES: O=C(c1cnc2c(c1)OCCN2c1ccn2c(=O)n(CC(F)(F)F)nc2c1)N1CCCCC1 [Example 27-3]
- IC50: < 10 nM

SMILES: CCOCn1nc2cc(N3CCCc4cc(C(=O)N5CCC[C@@H](CF)C5)cnc43)ccn2c1=O [Example 1-122]
- IC50: < 10 nM

SMILES: Cn1nc2cc(N3CCOc4cc(C(=O)N5CCCCC5(C)C)cnc43)ccn2c1=O [Example 8-172]
- IC50: > 100 nM

SMILES: CCn1nc2cc(N3CCCc4cc(C(=O)N5CCC(F)CC5)cnc43)ccn2c1=O [Example 8-165]
- IC50: < 10 nM

SMILES: Cn1nc2cc(N3CCCc4cc(C(=O)N5CCC[C@H](C(F)F)C5)cnc43)ccn2c1=O [Example 8-143]
- IC50: < 10 nM

SMILES: CNC(=O)c1ccc(N2CCOc3cc(C(=O)N4CCCCC4)cnc32)cc1C [Example 6-12]
- IC50: > 100 nM

SMILES: C[C@@H]1CCCCN1C(=O)c1cnc2c(c1)CCCN2c1ccn2c(=O)n(C)nc2c1 [Example 8-132]
- IC50: < 10 nM

SMILES: C[C@@H]1C[C@H](C)CN(C(=O)c2cnc3c(c2)OCCN3c2ccn3c(=O)n(C)nc3c2)C1 [Example 8-41]
- IC50: < 10 nM

SMILES: CCCN(C)C(=O)c1cnc2c(c1)OCCN2c1ccn2c(=O)n(C)nc2c1 [Example 17-1, N-Methyl-4-(2-methyl-3-oxo-2,3-dihydro-[1,2,4]triazolo[4,3-a]pyridin-7-yl)-N-propyl-3,4-dihydro-2H-pyrido[3,2-b][1,4]oxazine-7-carboxamide]
- IC50: < 10 nM

SMILES: Cn1cnc2cc(N3CCCc4cc(C(=O)N5CCCCC5)cnc43)ccc2c1=O [Example 1-87]
- IC50: < 10 nM

SMILES: CCN1Cc2cc(N3CCCc4cc(C(=O)N5CCC[C@H](F)C5)cnc43)ccc2C1=O [Example 8-84]
- IC50: < 10 nM

SMILES: CN1Cc2cc(N3CCCc4cc(C(=O)N5CCCCC5)cnc43)ccc2C1=O [Example 1-68]
- IC50: < 10 nM

SMILES: CCn1nc2cc(N3CCCc4cc(C(=O)N5CCc6ccccc6C5)cnc43)ccn2c1=O [Example 8-155]
- IC50: < 10 nM

SMILES: CN1CCN(C(=O)c2cnc3c(c2)OCCN3c2ccn3c(=O)n(C)nc3c2)CC1 [Example 8-226]
- IC50: 10 to 100 nM

SMILES: COCn1nc2cc(N3CCCc4cc(C(=O)N5CC[C@H](C)C5)cnc43)ccn2c1=O [Example 8-120]
- IC50: < 10 nM

SMILES: CCn1nc2cc(N3CCCc4cc(C(=O)N5CCC[C@@H](C)C5)cnc43)ccn2c1=O [Example 8-159]
- IC50: < 10 nM

SMILES: CN1Cc2cc(N3CCOc4cc(C(=O)N5Cc6ccccc6C5)cnc43)ccc2C1=O [Example 8-193]
- IC50: < 10 nM

SMILES: CCn1nc2cc(N3CCOc4cc(C(=O)N5CCC5)cnc43)ccn2c1=O [Example 8-16]
- IC50: < 10 nM

SMILES: O=C(O)c1ccc(N2CCSc3cc(C(=O)N4CCCCC4)ccc32)cc1 [Example 2-15]
- IC50: < 10 nM

SMILES: Cn1nc2cc(N3CCCc4cc(S(=O)(=O)C5CCCCC5)cnc43)ccn2c1=O [Example 7-8]
- IC50: > 100 nM

SMILES: Cn1nc2cc(N3CCOc4cc(C(O)C5CCCCC5)cnc43)ccn2c1=O (stereo not shown) [Example 19-1, 7-(7-(Cyclohexyl(hydroxy)methyl)-2,3-dihydro-4H-pyrido[3,2-b] [1,4]oxazin-4-yl)-2-methyl-[1,2,4]triazolo[4,3-a]pyridin-3 (2H)-one]
- IC50: < 10 nM

SMILES: COCCN1Cc2cc(N3CCCc4cc(C(=O)N5CCCCC5)cnc43)ncc2C1=O [Example 1-72]
- IC50: 10 to 100 nM

SMILES: O=C(O)c1ccc(N2CCOc3cc(C(=O)N4CCCCC4)sc32)cc1 [Example 4-12]
- IC50: < 10 nM

SMILES: O=C(c1cnc2c(c1)OCCN2c1ccn2c(=O)n(Cc3ccnc(Cl)c3)nc2c1)N1CCC(F)(F)CC1 [Example 27-7]
- IC50: < 10 nM

SMILES: Cn1nc2cc(N3CCCc4cc(C(=O)N5CCCC5)cnc43)ccn2c1=O [Example 8-123]
- IC50: < 10 nM

SMILES: CN1Cc2cc(N3CCOc4cc(C(=O)N5CCCCCC5)cnc43)ccc2C1=O [Example 8-186]
- IC50: < 10 nM

SMILES: Cn1ccc2cc(N3CCCc4cc(C(=O)N5CCC(F)(F)CC5)cnc43)ccc2c1=O [Example 1-182]
- IC50: < 10 nM

SMILES: Cn1nc2cc(N3CCOc4cc(C(=O)N5CCC[C@H](C(F)(F)F)C5)cnc43)ccn2c1=O [Example 8-116]
- IC50: < 10 nM

SMILES: O=C(O)c1ccc(N2CCS(=O)(=O)c3cc(C(=O)N4CCCCC4)ccc32)cc1 [Example 2-17]
- IC50: 10 to 100 nM

SMILES: Cn1nc2cc(N3CCOc4cc([S+]([O-])C5CCCCC5)cnc43)ccn2c1=O (stereo not shown) [Example 7-5]
- IC50: < 10 nM

SMILES: CCN1Cc2cc(N3CCCc4cc(C(=O)N5CCCC[C@@H]5C)cnc43)ccc2C1=O [Example 8-79]
- IC50: < 10 nM

SMILES: O=C(O)Cn1nc2cc(N3CCOc4cc(C(=O)N5CCCCC5)cnc43)ccn2c1=O [Example 2-23]
- IC50: < 10 nM

SMILES: CN1Cc2cc(N3CCOc4cc(C(=O)N5CCC[C@H](C(F)(F)F)C5)cnc43)ccc2C1=O [Example 8-208]
- IC50: < 10 nM

SMILES: CN1Cc2cc(N3CCOc4cc(C(=O)N5CCC(F)(F)CC5)cnc43)ncc2C1=O [Example 1-46]
- IC50: 10 to 100 nM

SMILES: CCn1nc2cc(N3CCOc4cc(C(=O)N5CCN(C(=O)OC(C)(C)C)CC5)cnc43)ccn2c1=O [Example 8-220]
- IC50: > 100 nM

SMILES: CCn1nc2cc(N3CCOc4cc(C(=O)N5CCN(C(C)=O)CC5)cnc43)ccn2c1=O [Example 8-219]
- IC50: > 100 nM

SMILES: Cn1nc2cc(N3CC(F)(F)COc4cc(C(=O)N5CCCCC5)cnc43)ccn2c1=O [Example 22-1, 7-(3,3-Difluoro-8-(piperidine-1-carbonyl)-3,4-dihydropyrido[3,2-b][1,4]oxazepin-5(2H)-yl)-2-methyl-[1,2,4]triazolo[4,3-a]pyridin-3 (2H)-one]
- IC50: 10 to 100 nM

SMILES: Cn1nc2cc(N3CCOc4cc(C(=O)N5CCCC(C)(F)C5)cnc43)ccn2c1=O (single isomer, unassigned) [23-2 Isomer B]
- IC50: < 10 nM

SMILES: CC(C)(C)OC(=O)c1ccc(N2CCOc3cc(C(=O)N4CCC[C@H](F)C4)cnc32)cc1 [Example 8-8]
- IC50: > 100 nM

SMILES: COCn1nc2cc(N3CCCc4cc(C(=O)N5CCC(F)(F)CC5)cnc43)ccn2c1=O [Example 1-76]
- IC50: < 10 nM

SMILES: Cn1nc2cc(N3CCNc4cc(C(=O)N5CCC(F)(F)CC5)cnc43)ccn2c1=O [Example 28-2]
- IC50: < 10 nM

SMILES: COCn1nc2cc(N3CCCc4cc(C(=O)N5CCCCC5)cnc43)ccn2c1=O [Example 1-53]
- IC50: < 10 nM

SMILES: O=C(c1cnc2c(c1)OCCN2c1ccn2c(=O)n(-c3ccccc3)nc2c1)N1CCCCC1 [Example 21-1, 2-Phenyl-7-(7-(piperidine-1-carbonyl)-2,3-dihydro-4H-pyrido[3,2-b] [1,4]oxazin-4-yl)-[1,2,4]triazolo[4,3-a]pyridin-3 (2H)-one]
- IC50: < 10 nM

SMILES: Cn1nc2cc(N3CCOc4cc(C(=O)N5C[C@H]6CCC[C@H]6C5)cnc43)ccn2c1=O [Example 8-98]
- IC50: < 10 nM

SMILES: CCOCn1nc2cc(N3CCCc4cc(C(=O)N5CCC[C@H](CF)C5)cnc43)ccn2c1=O [Example 1-115]
- IC50: < 10 nM

SMILES: CN(CCCCO)C(=O)c1cnc2c(c1)OCCN2c1ccn2c(=O)n(C)nc2c1 [Example 8-177]
- IC50: > 100 nM

SMILES: N#Cc1ccc(N2CCOc3cc(C(=O)N4CCCCC4)ccc32)cc1 [Example 1-157]
- IC50: < 10 nM

SMILES: O=C(c1cnc2c(c1)CCCN2c1cnc2c(=O)[nH]ncc2c1)N1CCCCC1 [Example 1-195]
- IC50: < 10 nM

SMILES: O=C(c1cnc2c(c1)CCCN2c1ccc2c(=O)[nH]cnc2c1)N1CCC(F)(F)CC1 [Example 8-96]
- IC50: < 10 nM

SMILES: CN1Cc2cc(N3CCOc4cc(C(=O)N5CCC[C@H](C(F)F)C5)cnc43)ccc2C1=O [Example 8-206]
- IC50: < 10 nM

SMILES: COCn1nc2cc(N3CCCc4cc(C(=O)N5CC[C@@H](C)C5)cnc43)ccn2c1=O [Example 8-121]
- IC50: < 10 nM

SMILES: COc1cc2c(cc1C(=O)N1CCCCC1)OCCN2c1ccc(C(=O)O)cc1 [Example 2-1, 4-(6-Methoxy-7-(piperidine-1-carbonyl)-2,3-dihydro-4H-benzo[b] [1,4]oxazin-4-yl)benzoic Acid]
- IC50: 10 to 100 nM

SMILES: Cn1nc2cc(N3CCOc4cc(C(=O)N5CCOCC5)cnc43)ccn2c1=O [Example 8-225]
- IC50: 10 to 100 nM

SMILES: O=C(c1cnc2c(c1)OCCN2c1cccc(Cl)c1)N1CCCCC1 [Example 1-253]
- IC50: 10 to 100 nM

SMILES: Cn1ccc2cc(N3CCOc4cc(C(=O)N5CCCCC5)cnc43)ccc2c1=O [Example 1-217]
- IC50: < 10 nM

SMILES: Cn1ccc2cc(N3CCCc4cc(C(=O)N5CCCCC5)cnc43)ccc2c1=O [Example 1-174]
- IC50: < 10 nM

SMILES: O=C(c1cnc2c(c1)OCCN2c1ccn2c(=O)n(C3CC3)nc2c1)N1CCCCC1 [Example 26-2]
- IC50: < 10 nM

SMILES: O=C(c1cnc2c(c1)CCCN2c1ccn2c(=O)n(CC3COC3)nc2c1)N1CCCCC1 [Example 1-58]
- IC50: < 10 nM
